# Data taken from US20240409585A1, “MACROCYCLIC IMMUNOMODULATORS” (priority 2021, published 2024).
# Numbered stars: 1 amine (or outer) side, 2 acyl side, 3 side chain; on linkers, the order of the positions; unused ones are H or OH. Bridge positions count the residues as written; N and C are the ends. Square brackets hold non-standard residues; d marks the D form. Peptide text beside a SMILES is read from it. * marks the point of attachment. ξ: configuration not given here. Phe(4-(4-F-Ph)) = N[C@@H](Cc1ccc(-c2ccc(F)cc2)cc1)C(=O)O; Phe(4-COOH) = N[C@@H](Cc1ccc(C(=O)O)cc1)C(=O)O; X23 = O=C([C@H](Cc1cc2ccccc2cn1)N[*:1])[*:2]; Bip = N[C@@H](Cc1ccc(-c2ccccc2)cc1)C(=O)O; Phe(3-Me) = Cc1cccc(C[C@H](N)C(=O)O)c1; Val(3-OH) = CC(C)(O)[C@H](N)C(=O)O; 3Pal = N[C@@H](Cc1cccnc1)C(=O)O; 4Pal = N[C@@H](Cc1ccncc1)C(=O)O; 3Thi = N[C@@H](Cc1ccsc1)C(=O)O; Cha = N[C@@H](CC1CCCCC1)C(=O)O; Cit = NC(=O)NCCC[C@H](N)C(=O)O; Ile(3ξ) = CCC(C)[C@H](N)C(=O)O; Thr(3ξ) = CC(O)[C@H](N)C(=O)O; Dap(Me) = CNC[C@H](N)C(=O)O; Carboxymethyl = O=C(O)C*; NMeA = CN[C@@H](C)C(=O)O; Nle = CCCC[C@H](N)C(=O)O; Orn = NCCC[C@H](N)C(=O)O; Dab = NCC[C@H](N)C(=O)O; Dap = NC[C@H](N)C(=O)O; NH(CH2)3NH2 = NCCCN*
# Target: T1, PE-labeled human PD-L1-Ig binding to Jurkat cell line over-expressing human PD-1 (Jurkat-PD-1) (Homo sapiens, UniProt Q15116)
# T1 construct: expressed in transfected cells; host or cells: Jurkat
# Assay: Jurkat-PD-1 Cell Binding High-Content Screening Assay (CBA): Method 1
# Settings: Jurkat-hPD-1 cells, PE-labeled PD-L1-Ig 20 nM final; read-out: Jurkat HPDL1 PD1 IC50 (uM) (Method 1)
# T1 sequence (Q15116 25-288): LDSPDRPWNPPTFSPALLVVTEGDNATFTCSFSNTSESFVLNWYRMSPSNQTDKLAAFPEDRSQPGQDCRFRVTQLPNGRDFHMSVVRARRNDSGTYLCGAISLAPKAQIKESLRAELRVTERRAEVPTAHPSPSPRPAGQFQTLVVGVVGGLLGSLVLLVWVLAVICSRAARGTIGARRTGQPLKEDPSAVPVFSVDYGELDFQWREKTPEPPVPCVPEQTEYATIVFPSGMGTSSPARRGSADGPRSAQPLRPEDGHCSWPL
row,IC50 [µM],Structure (SMILES)
1,0.04,CC(C)C[C@@H]1NC(=O)[C@H](CCN)NC(=O)[C@@H](CC(C)C)NC(=O)[C@H](C)N(C)C(=O)[C@H](CCCNC(N)=O)NC(=O)[C@H](Cc2ccc(-c3ccccc3)cc2)NC(=O)[C@H](C(C)C)NC(=O)[C@H](Cc2c[nH]c3ccccc23)NC(=O)[C@H](CC(=O)O)NC(=O)[C@H](Cc2ccncc2)NC(=O)[C@H](CN)NC(=O)CSC[C@@H](C(=O)N[C@@H](C)C(N)=O)NC(=O)[C@H]([C@@H](C)O)NC(=O)[C@H](C(C)C)NC1=O [Compound 1545] ({CH2CO}-[Dap][4Pal]DWV[Bip][Cit][NMeA][dL][Dab]LVTCA-NH2; thioether N-14)
2,0.02,CNC[C@@H]1NC(=O)CSC[C@@H](C(=O)N[C@@H](C)C(N)=O)NC(=O)[C@H](C(C)O)NC(=O)[C@H](C(C)C)NC(=O)[C@H](CC(C)C)NC(=O)[C@H](CCN)NC(=O)[C@@H](CC(C)C)NC(=O)[C@H](C)N(C)C(=O)[C@H](C(C)C)NC(=O)[C@H](Cc2ccc(-c3ccccc3)cc2)NC(=O)[C@H](C(C)C)NC(=O)[C@H](Cc2c[nH]c3ccccc23)NC(=O)[C@H](CC(=O)O)NC(=O)[C@H](Cc2ccc(O)cc2)NC1=O (stereo partly drawn) [Compound 2041] ({CH2CO}-[Dap(Me)]YDWV[Bip]V[NMeA][dL][Dab]LV[Thr(3ξ)]CA-NH2; thioether N-14)
3,0.03,Cc1cccc(C[C@@H]2NC(=O)[C@H](CC(=O)O)NC(=O)[C@H](Cc3ccncc3)NC(=O)[C@H](Cc3ccc(OCC(=O)O)cc3)NC(=O)CSC[C@@H](C(=O)N[C@@H](C)C(N)=O)NC(=O)[C@H](CO)NC(=O)[C@H](C(C)C)NC(=O)[C@H](CC(C)C)NC(=O)[C@H](CC(N)=O)NC(=O)[C@@H](CC(C)C)NC(=O)[C@H](C)N(C)C(=O)[C@H](C(C)C)NC(=O)[C@H](Cc3ccc(-c4ccccc4)cc3)NC(=O)[C@H](CC(C)C)NC2=O)c1 [Compound 1589] ({CH2CO}-Y(Carboxymethyl)[4Pal]D[Phe(3-Me)]L[Bip]V[NMeA][dL]NLVSCA-NH2; thioether N-14)
4,0.04,CC(C)C[C@@H]1NC(=O)[C@H](CCN)NC(=O)[C@@H](CC(C)C)NC(=O)[C@H](C)N(C)C(=O)[C@H](CCCNC(N)=O)NC(=O)[C@H](Cc2ccc(-c3ccccc3)cc2)NC(=O)[C@H](C(C)C)NC(=O)[C@H](Cc2c[nH]c3ccccc23)NC(=O)[C@H](CC(=O)O)NC(=O)[C@H](Cc2ccc(O)cc2)NC(=O)[C@H](Cc2cc3ccccc3cn2)NC(=O)CSC[C@@H](C(=O)N[C@@H](C)C(N)=O)NC(=O)[C@H](C(C)O)NC(=O)[C@H](C(C)C)NC1=O (stereo partly drawn) [Compound 2035] ({CH2CO}-[X23]YDWV[Bip][Cit][NMeA][dL][Dab]LV[Thr(3ξ)]CA-NH2; thioether N-14)
5,0.04,CC(C)C[C@@H]1NC(=O)[C@H](CCN)NC(=O)[C@@H](CC(C)C)NC(=O)[C@H](C)N(C)C(=O)[C@H](Cc2cnc[nH]2)NC(=O)[C@H](Cc2ccc(-c3ccccc3)cc2)NC(=O)[C@H](C(C)C)NC(=O)[C@H](Cc2c[nH]c3ccccc23)NC(=O)[C@H](CC(=O)O)NC(=O)[C@H](Cc2ccc(O)cc2)NC(=O)[C@H](Cc2cccnc2)NC(=O)CSC[C@@H](C(=O)N[C@@H](C)C(N)=O)NC(=O)[C@H]([C@@H](C)O)NC(=O)[C@H](C(C)C)NC1=O [Compound 1374] ({CH2CO}-[3Pal]YDWV[Bip]H[NMeA][dL][Dab]LVTCA-NH2; thioether N-14)
6,0.01,CC(C)C[C@@H]1NC(=O)[C@H](Cc2c[nH]c3ccccc23)NC(=O)[C@H](CC(=O)O)NC(=O)[C@H](Cc2ccc(C(=O)O)cc2)NC(=O)[C@H](Cc2ccc(OCC(=O)O)cc2)NC(=O)CSC[C@@H](C(=O)N[C@@H](CC(N)=O)C(N)=O)NC(=O)[C@H](CO)NC(=O)[C@H](C(C)C)NC(=O)[C@H](CC2CCCCC2)NC(=O)[C@H](CCN)NC(=O)[C@@H](CC(C)C)NC(=O)[C@H](C)N(C)C(=O)[C@H](C(C)C)NC(=O)[C@H](Cc2ccc(-c3ccccc3)cc2)NC1=O [Compound 1911] ({CH2CO}-Y(Carboxymethyl)[Phe(4-COOH)]DWL[Bip]V[NMeA][dL][Dab][Cha]VSCN-NH2; thioether N-14)
7,0.06,CCC(C)[C@@H]1NC(=O)[C@H](Cc2ccc(-c3ccccc3)cc2)NC(=O)[C@H](C(C)C)NC(=O)[C@H](Cc2c[nH]c3ccccc23)NC(=O)[C@H](CC(=O)O)NC(=O)[C@H](Cc2ccc(O)cc2)NC(=O)[C@H](Cc2ccsc2)NC(=O)CSC[C@@H](C(=O)NCCCN)NC(=O)[C@H](C(C)O)NC(=O)[C@H](C(C)(C)O)NC(=O)[C@H](CC2CCCCC2)NC(=O)[C@H](CC(N)=O)NC(=O)[C@@H](CC(C)C)NC(=O)[C@H](C)N(C)C1=O (stereo partly drawn) [Compound 2247] ({CH2CO}-[3Thi]YDWV[Bip][Ile(3ξ)][NMeA][dL]N[Cha][Val(3-OH)][Thr(3ξ)]C-{NH(CH2)3NH2}; thioether N-14)
8,0.02,CC(C)C[C@@H]1NC(=O)[C@H](Cc2c[nH]c3ccccc23)NC(=O)[C@H](CC(=O)O)NC(=O)[C@H](Cc2ccc(O)cc2)NC(=O)[C@H](Cc2ccccc2)NC(=O)CSC[C@@H](C(=O)N[C@@H](C)C(N)=O)NC(=O)[C@H](CO)NC(=O)[C@H](C(C)C)NC(=O)[C@H](CC(C)C)NC(=O)[C@H](CC(N)=O)NC(=O)[C@@H](CC(C)C)NC(=O)[C@H](C)N(C)C(=O)[C@H](C(C)C)NC(=O)[C@H](Cc2ccc(-c3ccccc3)cc2)NC1=O [Compound 1745] ({CH2CO}-FYDWL[Bip]V[NMeA][dL]NLVSCA-NH2; thioether N-14)
9,0.01,CC(C)C[C@@H]1NC(=O)[C@H](CCCN)NC(=O)[C@@H](CC(C)C)NC(=O)[C@H](C)N(C)C(=O)[C@H](C(C)C)NC(=O)[C@H](Cc2ccc(-c3ccccc3)cc2)NC(=O)[C@H](C(C)C)NC(=O)[C@H](Cc2c[nH]c3ccccc23)NC(=O)[C@H](CC(=O)O)NC(=O)[C@H](Cc2ccc(O)cc2)NC(=O)[C@H](CC(N)=O)NC(=O)CSC[C@@H](C(=O)N[C@@H](C)C(N)=O)NC(=O)[C@H]([C@@H](C)O)NC(=O)[C@H](C(C)C)NC1=O [Compound 1243] ({CH2CO}-NYDWV[Bip]V[NMeA][dL][Orn]LVTCA-NH2; thioether N-14)
10,0.15,Cc1cccc(C[C@@H]2NC(=O)[C@H](CC(=O)O)NC(=O)[C@H](Cc3ccc(OCC(=O)O)cc3)NC(=O)[C@H]([C@@H](C)O)NC(=O)CSC[C@@H](C(N)=O)NC(=O)[C@H]([C@@H](C)O)NC(=O)[C@H](C(C)C)NC(=O)[C@H](CC3CCCCC3)NC(=O)[C@H](CC(N)=O)NC(=O)[C@@H](CC(C)C)NC(=O)[C@H](C)N(C)C(=O)[C@H](Cc3ccc(OCC(=O)O)cc3)NC(=O)[C@H](Cc3ccc(-c4ccccc4)cc3)NC(=O)[C@H](Cc3ccc(OCC(=O)O)cc3)NC2=O)c1 [Compound 1678] ({CH2CO}-TY(Carboxymethyl)D[Phe(3-Me)]Y(Carboxymethyl)[Bip]Y(Carboxymethyl)[NMeA][dL]N[Cha]VTC-NH2; thioether N-14)
11,0.04,CCCC[C@@H]1NC(=O)[C@H](CCN)NC(=O)[C@@H](CC(C)C)NC(=O)[C@H](C)N(C)C(=O)[C@H](CCCNC(=N)N)NC(=O)[C@H](Cc2ccc(-c3ccccc3)cc2)NC(=O)[C@H](C(C)C)NC(=O)[C@H](Cc2c[nH]c3ccccc23)NC(=O)[C@H](CC(=O)O)NC(=O)[C@H](Cc2ccc(O)cc2)NC(=O)[C@H](CC(N)=O)NC(=O)CSC[C@@H](C(=O)N[C@@H](C)C(N)=O)NC(=O)[C@H]([C@@H](C)O)NC(=O)[C@H](C(C)C)NC1=O [Compound 1283] ({CH2CO}-NYDWV[Bip]R[NMeA][dL][Dab][Nle]VTCA-NH2; thioether N-14)
12,0.02,Cc1cccc(C[C@@H]2NC(=O)[C@H](CC(=O)O)NC(=O)[C@H](Cc3ccc(O)cc3)NC(=O)[C@H](CC(N)=O)NC(=O)CSC[C@@H](C(=O)N[C@@H](C)C(N)=O)NC(=O)[C@H]([C@@H](C)O)NC(=O)[C@H](C(C)C)NC(=O)[C@H](CC(C)C)NC(=O)[C@H](CCN)NC(=O)[C@@H](CC(C)C)NC(=O)[C@H](C)N(C)C(=O)[C@H](Cc3cnc[nH]3)NC(=O)[C@H](Cc3ccc(-c4ccccc4)cc3)NC(=O)[C@H](C(C)C)NC2=O)c1 [Compound 1376] ({CH2CO}-NYD[Phe(3-Me)]V[Bip]H[NMeA][dL][Dab]LVTCA-NH2; thioether N-14)
13,0.16,CC(C)C[C@@H]1NC(=O)[C@H](CCN)NC(=O)[C@@H](CC(C)C)NC(=O)[C@H](C)N(C)C(=O)[C@H](Cc2ccccc2)NC(=O)[C@H](Cc2ccc(-c3ccccc3)cc2)NC(=O)[C@H](C(C)C)NC(=O)[C@H](Cc2c[nH]c3ccccc23)NC(=O)[C@H](CC(=O)O)NC(=O)[C@H](Cc2ccc(O)cc2)NC(=O)[C@H](CC(N)=O)NC(=O)CSC[C@@H](C(=O)N[C@@H](C)C(N)=O)NC(=O)[C@H]([C@@H](C)O)NC(=O)[C@H](C(C)C)NC1=O [Compound 1272] ({CH2CO}-NYDWV[Bip]F[NMeA][dL][Dab]LVTCA-NH2; thioether N-14)
14,0.3,CC(C)C[C@H]1NC(=O)[C@H](C)N(C)C(=O)[C@H](C(C)C)NC(=O)[C@H](Cc2ccc(-c3ccccc3)cc2)NC(=O)[C@H](C(C)C)NC(=O)[C@H](Cc2c[nH]c3ccccc23)NC(=O)[C@H](CC(=O)O)NC(=O)[C@H](Cc2ccc(O)cc2)NC(=O)[C@H](CC(N)=O)NC(=O)CSC[C@@H](C(=O)N[C@@H](C)C(N)=O)NC(=O)[C@H]([C@@H](C)O)NC(=O)[C@H](C(C)C)NC(=O)[C@H](CC2CCCCC2)NC(=O)[C@H](CCCNC(=N)N)NC1=O [Compound 1294] ({CH2CO}-NYDWV[Bip]V[NMeA][dL]R[Cha]VTCA-NH2; thioether N-14)
15,0.66,CC(C)C[C@@H]1NC(=O)[C@H](Cc2c[nH]c3ccccc23)NC(=O)[C@H](CC(=O)O)NC(=O)[C@H](Cc2ccc(O)cc2)NC(=O)[C@H](Cc2ccccc2)NC(=O)CSC[C@@H](C(=O)N[C@@H](C)C(N)=O)NC(=O)[C@H](CO)NC(=O)[C@H](C(C)C)NC(=O)[C@H](CC(C)C)NC(=O)[C@H](CC(=O)O)NC(=O)[C@@H](C)NC(=O)[C@H](C)N(C)C(=O)[C@H](C(C)C)NC(=O)[C@H](Cc2ccc(-c3ccc(F)cc3)cc2)NC1=O [Compound 1825] ({CH2CO}-FYDWL[Phe(4-(4-F-Ph))]V[NMeA][dA]DLVSCA-NH2; thioether N-14)
